Key:
[1] = test system: annual bluegrass (Poa annua L.); assay: Test Example 4: field test in bent green turf, emerged ear number; type: in vivo; settings: applied Day 0 and after 30 days
Procedure: In a bent green turf where annual bluegrasses (Poa annua L.) were grown, a test zone of 1 m×1 m was provided. Benzyladenine (Beanine for painting; made by Rikengreen; containing 1% benzyladenine) and ethephon (Ethrel 10 soluble concentrate; Nissan Chemical Industries; containing 10% ethephon) were diluted in a predetermined amount of water, and a spreader (Riken Sprayzer (registered trade mark); made by Rikengreen) was added so as to be 1/1,000-fold concentration. The respectively diluted solutions were applied to each test zone at the first application (Day 0) at a dose as indicated in Table, and after a lapse of 30 days the second application was carried out. The amount of solution scattered was 100 mL/m^2 both in the first and second applications. The number of ear emergence of annual bluegrass (Poa annua L.) within the area of 10×10 cm was counted at regular intervals at 3 spots per zone. […] Dose means the amount at a single application.

[2] = test system: annual bluegrass (Poa annua L.); assay: Test Example 2: count of ear emergence, poly-cup, applications at intervals / alternate application; type: in vivo; settings: Ethephon 40 mg a.i./m^2 applied Day 10
Procedure: At the initial stage of the ear emergence of annual bluegrass (Poa annua L.) grown in a poly-cup of 11 cm×11 cm, benzyladenine (Beanine for painting; made by Rikengreen; containing 1% benzyladenine) and/or ethephon (Ethrel 10 soluble concentrate; Nissan Chemical Industries; containing 10% ethephon) were diluted in a predetermined amount of water, and a spreader (Riken Sprayzer (registered trade mark); made by Rikengreen) was added so as to be 1/1,000-fold concentration; the respectively diluted solutions were applied by atomization at a dose and intervals as indicated in Table (scattered solution: 200 mL/m^2), and the number of emerged ears of annual bluegrass (Poa annua L.) in the cup was counted through time. The test was carried out serially. […] The symbol “●” in Table indicates the treatment with benzyladenine, “◯” the treatment with ethephon, and “−” untreated. Dose means the amount at a single application.

[3] = test system: annual bluegrass (Poa annua L.); assay: Test Example 1: number of ear emergence, poly-cup, single or mixed application; type: in vivo
Procedure: At the initial stage of the ear emergence of annual bluegrass (Poa annua L.) grown in a poly-cup of 11 cm×11 cm, benzyladenine (Beanine for painting; made by Rikengreen; containing 1% benzyladenine) and ethephon (Ethrel 10 soluble concentrate; Nissan Chemical Industries; containing 10% ethephon) respectively as a single active ingredient or a mixture of them were diluted in a predetermined amount of water and applied by atomization so as to be a dose as indicated in Table. The application was carried out using 100 mL/m^2 of the solution to which a spreader (Riken Sprayzer (registered trade mark); made by Rikengreen) was added so as to be 1/1,000 fold. Inspection was made on Days 21, 32 and 45 after treatment with the agents to count the number of ear emergence in the cup. After completion of each inspection, clipping was performed.

lawn grasses = settings: Non-patent document 2; cited from earlier work
[4] = test system: southern crabgrasses (Digitaria ciliaris Koel.); assay: Test Example 5: field test in Manilagrass turf, inhibitory effect for ear emergence; type: in vivo; settings: Ethephon 50 mg a.i./m^2
Procedure: In a Manilagrass (Zoysia matrella) turf where southern crabgrasses (Digitaria ciliaris Koel.) were grown, a test zone of 1 m×1 m was provided. Benzyladenine (Beanine for painting; made by Rikengreen; containing 1% benzyladenine) and ethephon (Ethrel 10 soluble concentrate; Nissan Chemical Industries; containing 10% ethephon) were diluted in a predetermined amount of water. The respectively diluted solutions were applied to each test zone at the first application (Day 0) at a dose as indicated in Table, and after a lapse of 17 days the second application was carried out. The first application was conducted before the ear emergence of southern crabgrasses (Digitaria ciliaris Koel.). The amount of solution scattered was 150 mL/m^2 both in the first and second applications. The inhibitory effect for the ear emergence of southern crabgrasses (Digitaria ciliaris Koel.) within the area of 1 m×1 m was evaluated according to the standard as described in Table 7. […] The symbol “●” in Table 8 indicates the treatment with each agent, and “−” means untreated. Dose means the amount at a single application.

## O=P(O)(O)CCCl [Ethephon, 2-chloroethylphosphonic acid]
[1]; Day 22, Ethephon 80, Benzyladenine 0 mg a.i./m^2
  Ear (mean emerged ear number within 10×10 cm): 53.7
[1]; Day 22, Ethephon 160, Benzyladenine 0 mg a.i./m^2
  Ear (mean emerged ear number within 10×10 cm): 25.0
[1]; Day 41, Ethephon 80, Benzyladenine 0 mg a.i./m^2
  Ear (mean emerged ear number within 10×10 cm): 57.3
[1]; Day 41, Ethephon 160, Benzyladenine 0 mg a.i./m^2
  Ear (mean emerged ear number within 10×10 cm): 24.3
[1]; Day 61, Ethephon 80, Benzyladenine 0 mg a.i./m^2
  Ear (mean emerged ear number within 10×10 cm): 68.7
[1]; Day 61, Ethephon 160, Benzyladenine 0 mg a.i./m^2
  Ear (mean emerged ear number within 10×10 cm): 59.0
[2]; Day 25
  Count of ear emergence: 35
[2]; Day 33
  Count of ear emergence: 27
[3]; 21 Days after Application, Benzyladenine 0, Ethephon 40 mg a.i./m^2
  number of ear emergence in the cup: 43
[3]; 21 Days after Application, Benzyladenine 0, Ethephon 80 mg a.i./m^2
  number of ear emergence in the cup: 47
[3]; 21 Days after Application, Benzyladenine 0, Ethephon 160 mg a.i./m^2
  number of ear emergence in the cup: 28
[3]; 21 Days after Application, Benzyladenine 0, Ethephon 240 mg a.i./m^2
  number of ear emergence in the cup: 29
[3]; 21 Days after Application, Benzyladenine 0, Ethephon 320 mg a.i./m^2
  number of ear emergence in the cup: 19
[3]; 32 Days after Application, Benzyladenine 0, Ethephon 40 mg a.i./m^2
  number of ear emergence in the cup: 38
[3]; 32 Days after Application, Benzyladenine 0, Ethephon 80 mg a.i./m^2
  number of ear emergence in the cup: 41
[3]; 32 Days after Application, Benzyladenine 0, Ethephon 160 mg a.i./m^2
  number of ear emergence in the cup: 32
[3]; 32 Days after Application, Benzyladenine 0, Ethephon 240 mg a.i./m^2
  number of ear emergence in the cup: 19
[3]; 32 Days after Application, Benzyladenine 0, Ethephon 320 mg a.i./m^2
  number of ear emergence in the cup: 15
[3]; 45 Days after Application, Benzyladenine 0, Ethephon 40 mg a.i./m^2
  number of ear emergence in the cup: 54
[3]; 45 Days after Application, Benzyladenine 0, Ethephon 80 mg a.i./m^2
  number of ear emergence in the cup: 51
[3]; 45 Days after Application, Benzyladenine 0, Ethephon 160 mg a.i./m^2
  number of ear emergence in the cup: 38
[3]; 45 Days after Application, Benzyladenine 0, Ethephon 240 mg a.i./m^2
  number of ear emergence in the cup: 39
[3]; 45 Days after Application, Benzyladenine 0, Ethephon 320 mg a.i./m^2
  number of ear emergence in the cup: 36
Lawn grasses
  extension of stolon and weight in lawn grasses: promotes the extension of stolon and increase of the weight in lawn grasses
[4]; Day 18, applied Day 0
  Evaluation: index of inhibitory effect for ear emergence: 2 (20% or more-less than 30%)
[4]; Day 26, applied Day 0
  Evaluation: index of inhibitory effect for ear emergence: 3 (30% or more-less than 40%)
[4]; Day 26, applied Day 0 and Day 17
  Evaluation: index of inhibitory effect for ear emergence: 4 (40% or more-less than 50%)
[4]; Day 33, applied Day 0
  Evaluation: index of inhibitory effect for ear emergence: 1 (10% or more-less than 20%)
[4]; Day 33, applied Day 0 and Day 17
  Evaluation: index of inhibitory effect for ear emergence: 5 (50% or more-less than 60%)
[4]; Day 41, applied Day 0
  Evaluation: index of inhibitory effect for ear emergence: 1 (10% or more-less than 20%)
[4]; Day 41, applied Day 0 and Day 17
  Evaluation: index of inhibitory effect for ear emergence: 2 (20% or more-less than 30%)

From US8293682B2, “Growth regulators for gramineous weeds” (Rikengreen Co., Ltd., priority 2008, dated 2012)
